Experimental data from patent US20220233542A1, “COMPOSITIONS AND METHODS FOR PREVENTING OR TREATING HUMAN IMMUNODEFICIENCY VIRUS ASSOCIATED PULMONARY ARTERIAL HYPERTENSION” (University of Georgia Research Foundation, priority 2019, published 2022).
Several values for one entry are separate records, joined by “and”; a condition that tells them apart may be missing. Identical values can stand only once. Entries after “also recorded” stand apart in the source; their conditions may differ.

Legend:
[1] = system: SIV-infected rhesus macaques; assay: SIV-PAH model, hemodynamics by serial right heart catheterization; format: in vivo, Macaca mulatta; conditions: for Incidence PAH ≥ 25 mm Hg 6-12 mpi: number of animals of n = 14; for Prevalence of PAH (% PAH+): n = 14, untreated 52.2
Experimental: To determine the effect of statin treatment on PAH, SIV-infected rhesus macaques were studied. More specifically, a non-human primate (NHP) model of HIV-associated PAH that closely mimics HIV-PAH using simian immunodeficiency virus (SIV)-infected rhesus macaques (Macaca mulatta) was used. […] Moreover, the histologic and hemodynamic manifestations of SIV-PAH closely approximate those of human PAH.
Hemodynamics were measured by serial right heart catheterizations at baseline (BL), 6 months post-infection (6 mpi), and at the end of study (10-12 mpi) (FIG. 11C, 11D). In contrast to untreated controls (Untreated/SIV Group 1), 14.3% (Table 5, 2 of 14, P=0.03) of statin-treated animals (SIV/Statin Group 2) developed elevated mean pulmonary arterial pressure (mPAP) (monkey 3316 at 25.4 mm Hg and monkey 2416 at 46.3 mm Hg) at 6 mpi (FIG. 1). Of these animals, one maintained slightly elevated mPAP until the end of the study (monkey 3316, terminal mPAP=25.7). At study termination, mPAP of monkey 2416 decreased to 21.2 mm Hg.
It was further tested whether statin treatment initiated following SIV infection could modify PAH incidence or progression (FIG. 11A, SIV/Statin Group 3; Table 6). In this cohort, 1 of 14 monkeys (Table 2, 7.1%, P=0.0097) developed PAH (animal 2916; 6 mpi mPAP=45.5) at 6 mpi.
(§1) Animals. […] Study Design and Statin treatment. […] Hemodynamic measurements through right hearth catheterization. […] Flow Cytometry. […] Cytokine measurement in plasma and BALF. […] Whole slide images were acquired by Servicebio (Woburn, Mass.). […]

[2] = system: SIVΔB670; assay: Plasma viral load throughout SIV infection; format: in vivo, simian immunodeficiency virus (SIV)
Text: Therefore, peripheral blood CD4^+ T cell levels and plasma viral load throughout SIV infection were examined.
Animals. 28 adult Chinese rhesus macaques (Macaca mulatta) aged 6-10 years old were obtained from national primate centers or vendors and housed in accordance with the NIH Guide for the Care and Use of Laboratory Animals in a BSL2^+ primate facility at the University of Georgia (National Research Council Committee for the Update of the Guide for the Care and Use of Laboratory Animals, Guide for the Care and Use of Laboratory Animals (8th ed.) (National Academies Press National Academy of Sciences., 2011). Prior to admission to the study, all animals were screened and found negative for simian retroviruses and preexisting cardiovascular disease. Study Design and Statin treatment. All cohorts were infected with SIVΔB670 (1:100 in PBS), tissue culture infectious dose of 50% (TCID50)=2.6×10^5), intravenously or mucosally as previously described (Tarantelli et al. (2018); Schweitzer, F. et al. (2019)). […] All procedures were approved by the University of Georgia Institutional Animal Care and Use Committee. Hemodynamic measurements through right hearth catheterization. Right heart catheterization was performed and analyzed using a Swan-Ganz balloon wedge pressure catheter advanced through the right atrium, right ventricle, and pulmonary artery as previously described (Tarantelli et al). Flow Cytometry. Peripheral blood and bronchoalveolar lavage fluid (BALF) were collected at baseline (BL), 6 months post infection (mpi) and at study termination (10-12 mpi), and processed for flow cytometry as previously described (Board, K. F. et al. Experimental Pneumocystis carinii pneumonia in simian immunodeficiency virus-infected rhesus macaques. The Journal of infectious diseases 187, 576-588 (2003) and Kling, H. M. et al. Relationship of Pneumocystis jiroveci humoral immunity to prevention of colonization and chronic obstructive pulmonary disease in a primate model of HIV infection. Infection and immunity 78, 4320-4330 (2010)). CD14^dimCD16^+ non-classical monocytes and CCR7^−CD163^−CD206^+ BALF macrophages were identified by flow cytometry and calculated as previously described by Schweitzer, F. et al., supra). All analyses were performed using FlowJo Analysis software (Tree Star, Inc., Ashland, Oreg.). Cytokine measurement in plasma and BALF. Quantitative analysis of cytokines and chemokines in the plasma and BALF was performed using the Cytokine 29-Plex Monkey Panel (Invitrogen, Carlsbad, Calif.) according to the manufacturer's instructions. BALF analytes were normalized on the assumption that plasma and BALF have equal urea concentrations as previously described, using Quanti Chrom Urea Assay Kit (BioAssay Systems, Destin, Fla.) (Schweitzer, F. et al., supra). Histopathology and quantification of right ventricular and lung periarteriolar collagen deposition. 5 μm thick FFPE sections of the right heart and lung were cut and stained with Masson's trichrome and 0.1% Pico Sirius Red counterstained with Weigert's hematoxylin, to reveal fibrillar collagen, respectively by the UGA CVM Histopoathology Laboratory (Athens, Ga.). […] To quantify right ventricular collagen deposition in Masson's trichrome stained sections, 170 mm^2 regions were analyzed using Image J software (imagej.nih.gov/ij), with the threshold color plugin set to RGB; bright blue collagen was selected, converted to a binary image, and measured to quantify the collagen area. […]

[3] = system: CCR7−CD163−CD206+ BALF macrophages; assay: Flow cytometry of BALF macrophages; format: in vivo, Macaca mulatta; conditions: Groups 2 and 3 at 6 mpi compared to both PAH+ and PAH− SIV/Untreated controls
Text: (§2) Among cytokine signatures associated with the SIV-PAH, MIP-1α, TNF-α, and TGF-β have been previously associated with macrophage populations that promote fibrosis. At 6 mpi, SIV-PAH^+ animals had higher numbers of peripheral blood CD14^dimCD16^+ non-classical monocytes (FIG. 14A, p=0.06) and CCR7^−CD163^−CD206^+ BALF macrophages (FIG. 14C, p=0.04) compared to SIV-PAH^− controls. Moreover, increased numbers of CD14^dimCD16^+ non-classical monocytes (FIG. 14B, left panel, p=0.04) and CD14^+ CCR7^−CD163^−CD206^+ macrophages (FIG. 14D, left panel, p=0.03) correlate with increased pulmonary pressures in SIV/Uninfected controls at 6 mpi. Given the pleiotropic effects of statin upon monocyte and macrophage skewing and cytokine secretion, it was hypothesized that statins may decrease these populations which are associated with SIV-PAH.
as §1

[4] = system: TGF-β; assay: Cytokine measurement in BALF (Cytokine 29-Plex Monkey Panel); format: in vivo, Macaca mulatta; conditions: both statin-treated cohorts compared to PAH+ and PAH− SIV/Untreated controls
Text: To determine if statin treatment could modify these inflammatory mediators associated with SIV-PAH, cytokine profiles in the statin-treated cohorts were compared.
Animals. 28 adult Chinese rhesus macaques (Macaca mulatta) aged 6-10 years old were obtained from national primate centers or vendors and housed in accordance with the NIH Guide for the Care and Use of Laboratory Animals in a BSL2^+ primate facility at the University of Georgia (National Research Council Committee for the Update of the Guide for the Care and Use of Laboratory Animals, Guide for the Care and Use of Laboratory Animals (8th ed.) (National Academies Press National Academy of Sciences., 2011). Prior to admission to the study, all animals were screened and found negative for simian retroviruses and preexisting cardiovascular disease. Study Design and Statin treatment. All cohorts were infected with SIVΔB670 (1:100 in PBS), tissue culture infectious dose of 50% (TCID50)=2.6×10^5), intravenously or mucosally as previously described (Tarantelli et al. (2018); Schweitzer, F. et al. (2019)). […] All procedures were approved by the University of Georgia Institutional Animal Care and Use Committee. […] Quantitative analysis of cytokines and chemokines in the plasma and BALF was performed using the Cytokine 29-Plex Monkey Panel (Invitrogen, Carlsbad, Calif.) according to the manufacturer's instructions. […]

[5] = system: right ventricle collagen deposition; assay: Right ventricular collagen deposition (Masson's trichrome); format: in vivo, Macaca mulatta
Text: Moreover, increases in collagen deposition within the right ventricle (FIG. 15B, P=0.004; FIG. 15C) and small pulmonary arteries (FIG. 15D, P=0.0005) correlated with increased pulmonary pressures in SIV/Uninfected controls. Given the substantial dampening of pro-fibrotic immune phenotypes that occurs with statin treatment, right ventricular and lung periarteriolar collagen deposition were examined following statin treatment.
as §1

[6] = system: small pulmonary arteries collagen deposition; assay: Lung periarteriolar collagen deposition (Picro-Sirius Red); format: in vivo, Macaca mulatta
[7] = system: CD14dimCD16+ non-classical monocytes; assay: Flow cytometry of peripheral blood monocytes; format: in vivo, Macaca mulatta; conditions: both statin cohorts at 6 mpi compared to SIV-PAH+ controls
Text: as §2, §1

[8] = SIV/Statin Group 2, individual animals
[9] = SIV/Statin Group 3, individual animals
[10] = statin-treated cohorts compared with SIV-PAH− controls

Structure (SMILES): CC(C)c1c(C(=O)Nc2ccccc2)c(-c2ccccc2)c(-c2ccc(F)cc2)n1CC[C@@H](O)C[C@@H](O)CC(=O)O [atorvastatin]
- PAH Status [1, 8]: PAH− (PAH is defined as mPAP≥25 mm Hg); also recorded: PAH+ (PAH is defined as mPAP≥25 mm Hg)
- Peak mPAP (mm Hg) [1, 8]: 15.2 mm Hg and 46.3 mm Hg and 23.2 mm Hg (2×) and 25.7 mm Hg and 19.2 mm Hg and 17.6 mm Hg and 20.2 mm Hg and 17.4 mm Hg and 16.6 mm Hg and 17.1 mm Hg and 22.0 mm Hg and 20.6 mm Hg and 20.7 mm Hg
- Incidence PAH ≥ 25 mm Hg 6-12 mpi ([1]; SIV/Statin Group 2: atorvastatin 10 mg/day orally from 1 week prior to SIV infection): 2
- Prevalence of PAH (% PAH+) ([1]; SIV/Statin Group 2: atorvastatin from 1 week prior to SIV infection): 14.3%
- Prevalence of PAH (% PAH+) ([1]; SIV/Statin Group 2: atorvastatin from 1 week prior to SIV infection, listed as Statin): 14.3%
- mPAP at 6 mpi of animals that developed elevated mPAP ([1]; SIV/Statin Group 2, monkey 3316 and monkey 2416): 25.4 mm Hg and 46.3 mm Hg
- terminal mPAP of animals that developed elevated mPAP ([1]; SIV/Statin Group 2, monkey 3316 and monkey 2416, study termination): 25.7 mm Hg and 21.2 mm Hg
- PAH Status [1, 9]: PAH− (PAH is defined as mPAP≥25 mm Hg); also recorded: PAH+ (PAH is defined as mPAP≥25 mm Hg)
- Peak mPAP (mm Hg) [1, 9]: 21.4 mm Hg and 16.8 mm Hg and 13.2 mm Hg and 23.6 mm Hg and 45.5 mm Hg and 22.9 mm Hg and 24.1 mm Hg and 18.9 mm Hg and 20.2 mm Hg and 19.8 mm Hg and 24.4 mm Hg and 19.9 mm Hg
- Incidence PAH ≥ 25 mm Hg 6-12 mpi ([1]; SIV/Statin Group 3: atorvastatin 10 mg/day orally from 4 months following SIV infection): 1
- Prevalence of PAH (% PAH+) ([1]; SIV/Statin Group 3: atorvastatin from 4 months following SIV infection): 7.1%
- Prevalence of PAH (% PAH+) ([1]; SIV/Statin Group 3: atorvastatin from 4 months following SIV infection, listed as Statin): 7.1%
- 6 mpi mPAP of the animal that developed PAH ([1]; SIV/Statin Group 3, animal 2916): 45.5
- incidence of PAH ([1]; treatment initiated during the early chronic disease stage): reduced incidence of PAH compared to untreated animals
- development of SIV-associated PAH ([1]; treatment of healthy macaques prior to and throughout SIV infection): prevented the development of SIV-associated PAH
- Peak viral load (no. of RNA copies/mL) [2, 8]: 8.1 × 10^6 RNA copies/mL and 7.9 × 10^6 RNA copies/mL and 1.6 × 10^7 RNA copies/mL and 1.3 × 10^7 RNA copies/mL and 7.3 × 10^6 RNA copies/mL and 1.7 × 10^7 RNA copies/mL and 1.8 × 10^7 RNA copies/mL and 4.9 × 10^7 RNA copies/mL and 1.1 × 10^7 RNA copies/mL and 9.3 × 10^6 RNA copies/mL and 3.7 × 10^7 RNA copies/mL and 5.0 × 10^7 RNA copies/mL and 1.0 × 10^7 RNA copies/mL and 5.0 × 10^6 RNA copies/mL
- Viral set point (no. of RNA copies/mL) [2, 8]: 3.0 × 10^4 RNA copies/mL and 6.1 × 10^3 RNA copies/mL and 1.8 × 10^6 RNA copies/mL and 1.7 × 10^6 RNA copies/mL (2×) and 9.9 × 10^5 RNA copies/mL and 2.7 × 10^5 RNA copies/mL and 1.3 × 10^4 RNA copies/mL and 8.8 × 10^4 RNA copies/mL and 3.5 × 10^5 RNA copies/mL and 4.6 × 10^4 RNA copies/mL and 2.9 × 10^6 RNA copies/mL and 1.4 × 10^5 RNA copies/mL and 1.2 × 10^5 RNA copies/mL
- Peak viral load (no. of RNA copies/mL) ([2]; SIV/Statin Group 3 (treatment started 4 months following infection), individual animals): 2.4 × 10^7 RNA copies/mL and 1.6 × 10^7 RNA copies/mL and 1.2 × 10^7 RNA copies/mL and 4.7 × 10^7 RNA copies/mL and 4.3 × 10^7 RNA copies/mL and 2.2 × 10^7 RNA copies/mL and 1.0 × 10^6 RNA copies/mL and 8.4 × 10^5 RNA copies/mL and 8.3 × 10^6 RNA copies/mL and 7.3 × 10^6 RNA copies/mL and 9.6 × 10^6 RNA copies/mL and 8.8 × 10^6 RNA copies/mL and 2.9 × 10^7 RNA copies/mL and 5.8 × 10^6 RNA copies/mL
- Viral set point (no. of RNA copies/mL) [2, 9]: 1.4 × 10^5 RNA copies/mL and 4.1 × 10^3 RNA copies/mL and 1.1 × 10^6 RNA copies/mL and 7.8 × 10^2 RNA copies/mL and 1.4 × 10^6 RNA copies/mL and 1.2 × 10^7 RNA copies/mL and 1.5 × 10^4 RNA copies/mL and 3.0 × 10^2 RNA copies/mL and 1.1 × 10^5 RNA copies/mL and 1.8 × 10^6 RNA copies/mL and 4.4 × 10^5 RNA copies/mL and 2.8 × 10^3 RNA copies/mL and 4.0 × 10^5 RNA copies/mL and 9.0 × 10^3 RNA copies/mL
- viral load compared to SIV/Untreated controls ([2]; both statin-treated cohorts, throughout SIV infection): did not significantly alter; also recorded: does not significantly affect
- number of CCR7−CD163−CD206+ BALF macrophages [3]: significantly reduced
- levels of BALF TGF-β at 6 mpi [4]: significantly lower
- right ventricle collagen deposition ([5]; both statin-treated cohorts compared to SIV-PAH+): significantly less collagen deposition
- right ventricle collagen deposition [5, 10]: considerably less collagen deposition
- small pulmonary arteries collagen deposition ([6]; statin-treated cohorts compared to SIV-PAH+): significantly less collagen deposition
- lung collagen deposition [6, 10]: considerably less collagen deposition
- number of CD14dimCD16+ non-classical monocytes [7]: significantly lower
